Results taken from ChEMBL document CHEMBL1857833, “Screening and optimization of specific chemical series against human African Trypanosomiasis (HAT)”.
Converted amounts (≈) assume the structure as drawn.

How the values were obtained:
[1] = test system: Trypanosoma brucei; experiment: DNDI: Inhibition of Human African Trypanosomiasis, SBRI 427, in vitro; assay type: functional, organism-based
[2] = DNDI: Cytotoxicity against L929 mouse fibroblasts, 72 hour.; assay type: toxicity, cell-based; settings: mouse, L929 mouse fibroblasts
[3] = Trypanosoma brucei, SBRI 427, read-out: IC50

CC(NCc1coc(-c2cccc3ccccc23)n1)C1CCCCC1 (stereo not given)
IC50 [1]: 1.7 µg/mL (≈ 5.08 µM) | IC50 [1, 3]: 1.34 µg/mL (≈ 4.01 µM)

Cc1cc(C)cc(CN/C(=N\O)c2cccnc2OCc2ccccc2F)c1
IC50 [1, 3]: 1.96 µg/mL (≈ 5.17 µM)

C=CCc1ccc(Oc2ccc(/C(=N/O)NCc3ccncc3)cn2)c(OC)c1
IC50 [1, 3]: 2.1 µg/mL (≈ 5.38 µM)

CCC(CC)N/C(=N\O)c1ccc(C)nc1Oc1ccc(F)c(Cl)c1
IC50 [1, 3]: > 5 µg/mL

COc1ccc(-c2nc(CNCCCN3CCCCC3C)co2)cc1 (stereo not given)
IC50 [1, 3]: > 5 µg/mL

COc1ccc(Oc2ncccc2/C(=N/O)NCc2ccccc2)cc1
IC50 [1, 3]: 3.01 µg/mL (≈ 8.62 µM)

COc1cccc(Oc2ccc(/C(=N/O)NC3CCC(C)CC3)cn2)c1 (stereo not given)
IC50 [1, 3]: 1.97 µg/mL (≈ 5.54 µM)

CCOc1ccc(-c2nc(Cn3nc(N)cc3C)co2)cc1
IC50 [1, 3]: 2.11 µg/mL (≈ 7.07 µM)

Cc1ccc(/C(=N/O)NC2CCC2)c(Oc2ccc3oc4ccccc4c3c2)n1
IC50 [1, 3]: 0.39 µg/mL (≈ 1.01 µM)

COCC(C)N/C(=N\O)c1ccnc(Oc2ccc(Cl)cc2)c1 (stereo not given)
IC50 [1, 3]: 0.36 µg/mL (≈ 1.07 µM)

O/N=C(\NCC1CCCCC1)c1ccc(Oc2ccc(Cl)cc2)nc1
IC50 [1, 3]: 1.6 µg/mL (≈ 4.45 µM)

CCOc1ccc(-c2nc(CNC(C)C3CCCCC3)co2)cc1 (stereo not given)
IC50 [1]: 1.96 µg/mL (≈ 5.97 µM) | IC50 [1, 3]: 1.44 µg/mL (≈ 4.38 µM)

COc1ccc(Oc2nc(C)ccc2/C(=N/O)NC2CCCC2)cc1
IC50 [1, 3]: 1.33 µg/mL (≈ 3.9 µM)

O/N=C(\NCc1ccccc1)c1cccnc1Oc1ccc(F)cc1Cl
IC50 [1, 3]: 0.62 µg/mL (≈ 1.67 µM)

Cc1ccc(Oc2ncccc2/C(=N/O)NCc2ccccc2)c2c1CCC2
IC50 [1, 3]: 1.28 µg/mL (≈ 3.43 µM)

CCC(CC)N/C(=N\O)c1ccc(C)nc1Oc1cc(Cl)ccc1Cl
IC50 [1, 3]: 3.35 µg/mL (≈ 8.76 µM)

CC(C)(C)c1ccc(-c2nc(CNCC3CC3)co2)cc1
IC50 [1]: 1.69 µg/mL (≈ 5.94 µM) | IC50 [1, 3]: 1.22 µg/mL (≈ 4.29 µM)

O/N=C(\NC1CCC1)c1ccc(Oc2ccc3oc4ccccc4c3c2)nc1
IC50 [1, 3]: 1.06 µg/mL (≈ 2.84 µM)

O/N=C(\NC1CCc2ccccc21)c1cccnc1Oc1c(F)cccc1F (stereo not given)
IC50 [1, 3]: 1.7 µg/mL (≈ 4.46 µM)

O/N=C(\NC1CCC1)c1ccc(Oc2c(F)c(F)cc(F)c2F)nc1
IC50 [1, 3]: 2.58 µg/mL (≈ 7.26 µM)

Cc1ccc(Oc2ncccc2/C(=N/O)NCc2c(F)cccc2F)cc1
IC50 [1, 3]: 1.75 µg/mL (≈ 4.74 µM)

O/N=C(\NCC1CCCCC1)c1ccnc(Oc2ccc(Cl)cc2)c1
IC50 [1, 3]: 3.98 µg/mL (≈ 11.1 µM)

COc1ccc(Oc2cc(/C(=N/O)NCC(C)(C)C)ccn2)cc1
IC50 [1, 3]: 4.8 µg/mL (≈ 14.6 µM)

CCC(CC)N/C(=N\O)c1cccnc1Oc1ccccc1OC
IC50 [1, 3]: 0.59 µg/mL (≈ 1.79 µM)

CC(C)c1ccc(Oc2ncccc2/C(=N/O)NCc2c(F)cccc2F)cc1
IC50 [1, 3]: > 5 µg/mL

CCC(CC)N/C(=N\O)c1cccnc1Oc1ccccc1F
IC50 [1, 3]: 0.43 µg/mL (≈ 1.35 µM)

CSc1ccc(Oc2ccc(/C(=N/O)NCc3ccccc3F)cn2)cc1
IC50 [1, 3]: 1.6 µg/mL (≈ 4.17 µM)

Cc1ccc(/C(=N/O)NC2CCCCC2)c(Oc2ccc3ccccc3c2)n1
IC50 [1, 3]: 0.37 µg/mL (≈ 0.985 µM)

C[C@H]1C(NCc2coc(-c3cccc4ccccc34)n2)C[C@@H]2C[C@H]1C2(C)C (stereo not given in full)
IC50 [1, 3]: 0.9 µg/mL (≈ 2.5 µM)

CC1CCC(N/C(=N\O)c2ccc(Oc3ccc(Cl)cc3)nc2)CC1 (stereo not given)
IC50 [1, 3]: 1.42 µg/mL (≈ 3.95 µM)

COc1ccc(/C(=N/O)Nc2cccc(C)c2)cc1
IC50 at 72 h [2]: > 10 µg/mL

O/N=C(\NCC1CC1)c1cccnc1Oc1ccc(F)cc1
IC50 [1, 3]: 1.23 µg/mL (≈ 4.08 µM)

CCN(CCN(C)C)Cc1coc(-c2ccc(C(C)(C)C)cc2)n1
IC50 [1]: 1.87 µg/mL (≈ 5.68 µM) | IC50 [1, 3]: 3.09 µg/mL (≈ 9.38 µM)

Cc1ccc(-c2nc(CNC34C[C@H]5C[C@@H](C3)C[C@@H](C4)C5)co2)cc1
IC50 [1, 3]: 3.86 µg/mL (≈ 12 µM)

CC(C)COc1ncccc1/C(=N/O)NC1CCCCC1
IC50 [1, 3]: 2.18 µg/mL (≈ 7.48 µM)

CCc1ccc(Oc2ncccc2/C(=N/O)NC(C)COC)cc1 (stereo not given)
IC50 [1, 3]: 2.17 µg/mL (≈ 6.59 µM)

Cc1ccc(/C(=N/O)NC2CC(C)CC(C)(C)C2)c(OCC(C)C)n1 (stereo not given)
IC50 [1, 3]: 1.77 µg/mL (≈ 5.09 µM)

CC(C)COc1ncccc1/C(=N/O)NC1CCC1
IC50 [1, 3]: 1.41 µg/mL (≈ 5.35 µM)

CC(C)(C)CN/C(=N\O)c1ccnc(Oc2ccc(F)c(Cl)c2)c1
IC50 [1, 3]: 2.73 µg/mL (≈ 7.76 µM)

COc1cccc(Oc2ccc(/C(=N/O)NCC3CCCCC3)cn2)c1
IC50 [1, 3]: 2.15 µg/mL (≈ 6.05 µM)

CC1CCc2ccccc2N1/C(=N\O)c1cccnc1OCC(C)(C)C (stereo not given)
IC50 [1, 3]: 0.66 µg/mL (≈ 1.87 µM)

O/N=C(\NC1CCCC1)c1ccc(Oc2cccc3c2CCCC3)nc1
IC50 [1, 3]: 0.31 µg/mL (≈ 0.882 µM)

Cc1ccc(Oc2ccc(/C(=N/O)NC3CCCC3)cn2)c(C)c1
IC50 [1, 3]: 21.8 µg/mL (≈ 66.9 µM)

O/N=C(/c1cccnc1Oc1cccc(C(F)(F)F)c1)N1CCN(C2CCCC2)CC1
IC50 [1, 3]: 2.33 µg/mL (≈ 5.36 µM)

Cc1cccc(Oc2nc(C)ccc2/C(=N/O)NCC(C)C)c1
IC50 [1, 3]: 1.67 µg/mL (≈ 5.33 µM)

CSc1ccccc1Oc1ncccc1/C(=N/O)NC1CCCC1
IC50 [1, 3]: 2.99 µg/mL (≈ 8.71 µM)

CCN(CC)CCCNCc1coc(-c2cccc(C)c2)n1
IC50 [1, 3]: 3.36 µg/mL (≈ 11.1 µM)

O/N=C(\NC1CCCC1)c1ccnc(Oc2cc(Cl)ccc2Cl)c1
IC50 [1, 3]: 10.8 µg/mL (≈ 29.6 µM)

O/N=C(\NCc1cccs1)c1cccnc1Oc1ccc2oc3ccccc3c2c1
IC50 [1, 3]: 2.45 µg/mL (≈ 5.9 µM)

O/N=C(\NC1CCCCC1)c1ccc(Oc2ccc3ccccc3c2)nc1
IC50 [1, 3]: > 5 µg/mL

Cc1ccc(/C(=N/O)NCc2cc(F)cc(F)c2)c(Oc2cc(Cl)ccc2Cl)n1
IC50 [1, 3]: 2.52 µg/mL (≈ 5.75 µM)
